ChEMBL document CHEMBL4334442, “Effects of Acetylshikonin on the Infection and Replication of Coxsackievirus A16 in Vitro and in Vivo” (J Nat Prod, 2019)
pEC50: −log10 of the molar value. The source made the active and inactive calls. No cut-off for these calls is given here.

Columns and labels:
Coxsackievirus A16 [1] = test: Antiviral activity against Coxsackievirus A16 TA271 infected in ICR mouse assessed as reduction in muscle fiber breakage in hind limb muscle at 2 mg/kg, im after 5 days post infection by H and E staining based histopathological analysis; type: functional, organism-based
Coxsackievirus A16 [2] = test: Antiviral activity against Coxsackievirus A16 TA271 infected in ICR mouse assessed as reduction in viral load in spinal muscle at 0.08 uM/L preincubated with viral suspension for 2 hrs followed by intramuscular administration after 3 to 5 days post infection by RT-PCR analysis; type: functional
Coxsackievirus A16 [3] = test: Antiviral activity against Coxsackievirus A16 TA271 infected in ICR mouse assessed as reduction in inflammatory cell infiltration in heart at 2 mg/kg, im after 5 days post infection by H and E staining based histopathological analysis; type: functional, organism-based
Coxsackievirus A16 [4] = test: Antiviral activity against Coxsackievirus A16 TA271 infected in ICR mouse assessed as reduction in inflammatory cell infiltration in hind limb muscle at 2 mg/kg, im after 5 days post infection by H and E staining based histopathological analysis; type: functional, organism-based
Coxsackievirus A16 [5] = test: Antiviral activity against Coxsackievirus A16 TA271 infected in RD cells at release stage assessed as cell detachment at 0.08 uM/L preincubated with cells for 1 hr followed by replacement of fresh medium containing compounds after 5 hrs post infection and further incubated for 16 hrs post infection by inverted microscopic analysis; type: functional, cell-based
Coxsackievirus A16 [6] = test: Antiviral activity against Coxsackievirus A16 TA271 infected in ICR mouse assessed as mild alveolar fibrosis in spinal muscle at 2 mg/kg, im after 5 days post infection by H and E staining based histopathological analysis; type: functional, organism-based
Coxsackievirus A16 [7] = test: Antiviral activity against Coxsackievirus A16 TA271 infected in human RD cells assessed as inhibition of virus-induced cytopathic effect preincubated with viral suspension for 2 hrs followed by cell addition and measured after 24 hrs by CCK-8 assay; type: functional, cell-based
Coxsackievirus A16 [8] = test: Antiviral activity against Coxsackievirus A16 TA271 infected in ICR mouse assessed as reduction in virus-induced IL-6 level at 0.08 uM/L preincubated with viral suspension for 2 hrs followed by intramuscular administration after 3 days post infection by ELISA; type: functional
Coxsackievirus A16 [9] = test: Antiviral activity against Coxsackievirus A16 TA271 infected in RD cells at replication stage assessed as cell detachment at 0.08 uM/L 1 hr post-infection viral inoculum was removed and cells incubated with medium containing compound and measured after 5 hrs by inverted microscopic analysis; type: functional, cell-based

Compound: CC(=O)OC(CC=C(C)C)C1=CC(=O)c2c(O)ccc(O)c2C1=O (stereo not given)
- Activity (Coxsackievirus A16 [1]): Active
- Activity (Coxsackievirus A16 [2]): Active
- Activity (Coxsackievirus A16 [3]): Active
- Activity (Coxsackievirus A16 [4]): Active
- Activity (Coxsackievirus A16 [5]): inactive
- Activity (Coxsackievirus A16 [6]): Active
- Activity (Coxsackievirus A16 [7]): Dose-dependent effect
- pEC50 (Coxsackievirus A16 [7]; Enterovirus A): 7.40
- Activity (Coxsackievirus A16 [8]): Active
- Activity (Coxsackievirus A16 [9]): inactive
